# Where two headings read alike, the source gives them in different places.
# Target: T1, peroxisome proliferator activator receptor gamma (PPARG) (Homo sapiens, UniProt P37231)
# T1 sequence (P37231 1-505): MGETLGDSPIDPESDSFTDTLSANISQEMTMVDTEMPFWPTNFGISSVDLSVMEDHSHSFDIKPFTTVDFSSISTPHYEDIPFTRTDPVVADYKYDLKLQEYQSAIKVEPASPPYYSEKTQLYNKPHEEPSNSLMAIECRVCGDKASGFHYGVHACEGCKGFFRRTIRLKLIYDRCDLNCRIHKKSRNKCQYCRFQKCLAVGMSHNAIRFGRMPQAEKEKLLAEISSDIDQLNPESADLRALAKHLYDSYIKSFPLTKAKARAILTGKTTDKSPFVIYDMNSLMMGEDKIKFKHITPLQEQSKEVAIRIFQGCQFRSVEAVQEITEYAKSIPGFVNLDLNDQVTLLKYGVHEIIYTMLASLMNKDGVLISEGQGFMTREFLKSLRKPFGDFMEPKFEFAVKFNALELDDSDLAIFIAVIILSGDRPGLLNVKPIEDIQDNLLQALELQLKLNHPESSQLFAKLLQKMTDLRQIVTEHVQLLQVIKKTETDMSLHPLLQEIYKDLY
# Experiment: SPR (Biacore T200), PPARG immobilized on CM5 chip
# Format: binding
SMILES,Kd (read-out: Kd) [µM],Kd [µM]
O=C(/C=C/c1ccc(O)c(O)c1/C=C/c1ccc(O)c(O)c1)O[C@H](Cc1ccc(O)c(O)c1)C(=O)O [Salvianolic acid A],3.5,
COc1cc2c(c(OC)c1OC)-c1c(cc3c(c1OC)OCO3)CC(C)C(C)C2 (stereo not shown) [schisandrin B],22,
O=c1c(O)c(-c2ccc(O)cc2)oc2cc(O)cc(O)c12 [Kaempferol],51,
"CCCCC/C=C/C=C1/C(=O)C=C[C@@H]1C/C=C\CCCC(=O)O [15d-PGJ2, reference compound]",,9.8

# Source: publication PMC5976863, “The Active Components of Fuzheng Huayu Formula and Their Potential Mechanism of Action in Inhibiting the Hepatic Stellate Cells Viability – A Network Pharmacology and Transcriptomics Approach” (Frontiers in Pharmacology, 2018)
